Experimental data as given in patent US20260327264A1, “PEPTIDE INHIBITORS OF INTERLEUKIN-23 RECEPTOR” (Zealand Pharma A/S, priority 2023, published 2026).
Read-outs that look alike come from different tables or passages of the source. *1 amine or outer side, *2 acyl side, *3 side chain or, on linkers, in order; H or OH if unused. Where a SMILES comes first, the peptide text is derived from it. Bridges are numbered along the chain shown (N, C = ends). [ ]: non-standard residue; d: D form. 2Nal = N[C@@H](Cc1ccc2ccccc2c1)C(=O)O; AEF = NCCOc1ccc(C[C@H](N)C(=O)O)cc1; X1 = O=C(Cc1ccc(CN[*:1])cc1)[*:2]; 3Pal = N[C@@H](Cc1cccnc1)C(=O)O; αMeL = CC(C)C[C@](C)(N)C(=O)O; β3hL = CC(C)C[C@H](N)CC(=O)O; Dab = NCC[C@H](N)C(=O)O

Key:
human IL-23R = target: T1, human IL-23R (Homo sapiens, UniProt Q5VWK5); assay: Binding assay: displacement of fluorophore (TAMRA)-labelled reference compound from human IL-23R (BRET, Nluc-IL23R fusion protein membranes); details: for Emax: read-out: % displacement (hIL-23R binding)
T1 construct: Nanoluc luciferase (Nluc); secretion signal encoded by the plasmid (not specified); expressed in transfected cells; crude membranes used in the assay
T1 sequence (Q5VWK5 22-629): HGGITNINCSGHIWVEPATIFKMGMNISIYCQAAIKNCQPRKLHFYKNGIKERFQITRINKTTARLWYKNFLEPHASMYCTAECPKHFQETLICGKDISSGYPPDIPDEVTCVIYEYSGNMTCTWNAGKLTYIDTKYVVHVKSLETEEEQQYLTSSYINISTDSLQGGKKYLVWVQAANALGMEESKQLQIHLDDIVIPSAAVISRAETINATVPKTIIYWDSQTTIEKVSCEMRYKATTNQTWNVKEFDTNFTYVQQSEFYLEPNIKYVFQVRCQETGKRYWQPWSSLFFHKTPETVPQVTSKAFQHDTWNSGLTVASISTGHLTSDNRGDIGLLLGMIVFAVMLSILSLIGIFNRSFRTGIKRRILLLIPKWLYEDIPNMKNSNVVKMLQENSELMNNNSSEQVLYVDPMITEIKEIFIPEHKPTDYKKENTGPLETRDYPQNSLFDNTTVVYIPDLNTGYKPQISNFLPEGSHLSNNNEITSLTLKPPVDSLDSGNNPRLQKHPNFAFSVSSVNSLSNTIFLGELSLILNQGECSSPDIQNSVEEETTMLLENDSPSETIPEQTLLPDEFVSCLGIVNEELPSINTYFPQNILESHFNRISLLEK
Text: The assay principle relies on Bioluminescence Resonance Energy Transfer (BRET) between a fluorophore-labelled reference compound binding to the IL-23R part of a fusion protein consisting of the IL-23R fused to a Nanoluc luciferase enzyme (Nanoluc). The Nanoluc is placed in the N-terminus in close proximity to the binding domain of the ligand. Upon close proximity between the fluorophore of the fluorophore-labelled compound and the Nanoluc of the fusion protein, bioluminescence energy generated from conversion of a Nanoluc substrate, is transferred to the fluorophore resulting in an increase in BRET. In presence of an unlabelled compound, the unlabelled compound displaces the fluorophore-labelled peptide from its binding site resulting in a decrease in BRET. The concentration for which half of the fluorophore-labelled peptide is displaced by the unlabelled compound depends on the affinity of the compound for the IL-23R, and is termed the IC50 concentration.
The plasmid also contained a gene to confer resistance for the antibiotic hygromycin. A cell line stably expressing the Nluc-IL23R fusion protein was generated by transfection of HEK293 cells with the expression plasmid and selected with hygromycin for 3 weeks in Growth medium consisting of DMEM w/Glutamax-I containing, 10% V/V FBS, 1% V/V P/S, 1 mM Sodium Pyruvate, and 1× NEAA, and 0.3 mg/mL hygromycin. The remaining cells were propagated and considered a stable expressing Nluc-IL23R fusion protein pool clone.
Cells expressing the Nluc-IL23R fusion protein were expanded in Growth medium and membranes prepared by homogenization of a cell pellet from 18 T175 flasks (4° C. in subsequent steps). The cell pellet was lysed Tris 10 mM, 7.5, 1 mM EDTA and protease inhibitors (Complete, Roche) and homogenized using a 15 mL glass-dounce by 50 strokes. The homogenate was spun at spin @1500 rpm for 10 min, the supernatant transferred to SV-34 tubes and spun at 40000 g for 20 min at 4° C. to pellet the crude membranes. The supernatant was then removed, the pellet resuspended in 5 mL buffer containing 50 mM HEPES pH 7.4, 5 mM EGTA, and 5 mM MgCl2, and homogenized. Aliquots of the resuspended and homogenized membranes containing the Nluc-IL23R fusion protein were stored at −80° C. until use.
The plate was sealed with light impermeable plate seals, and incubated on an orbital shaker 400 rpm for 2 hours at room temperature. To determine the BRET ratio, the plate seal was removed and 25 μL of the Nanoluc substrate (Promega N1572) diluted 1:500 was added to each well and incubated for 1-2 minutes on an orbital shaker at 400 rpm. […] The BRET ratio was calculated as the fluorescence from the TAMRA/nanoluc bioluminescence.
Compound potency (IC50) and maximal displacement (% displacement) were estimated by computer-aided curve fitting using a 4-parameter logistic (4PL) non-linear model. The IC50 and maximal for each compound was determined by computer-aided curve fitting using a 4-parameter logistic (4PL) non-linear model.

[1] = Peptide stability in simulated gastric fluid (SGF); assay type: in vitro ADME; details: pig, pH 1.2, pepsin, 37° C.
Procedure: (§1) SGF and SIF were prepared based on the United States Pharmacopeia specifications (Test Solutions, United States Pharmacopeia 35, NF 30, 2012). SGF was prepared by dissolving sodium chloride (0.2 g) in 50 mL of water. A volume of 0.7 mL of 10 M HCl was added to adjust the pH of the solution to 1.2 and the volume made up to 100 mL with water. 64 mg porcine pepsin (P7125, Sigma Aldrich) was gently dissolved into 20 mL preheated (37° C.) solution (3.2 g/L) immediately prior to the incubation. SIF was prepared by dissolving monobasic potassium phosphate (0.68 g) in 50 mL of water and adjusting the pH to 6.8 with 1 M NaOH. The volume was subsequently made up to 100 mL with water. 200 mg porcine pancreatin (P1625, Sigma Aldrich) was gently dissolved into 20 mL preheated (37° C.) solution (10 g/L) immediately prior to the incubation.
(§2) To initiate the incubations, 20 μL of peptide stock solution in 50% v/v isopropanol was deposited at the bottom of a well plate and 580 μL matrix solution was added to give a final substrate concentration of 10 μM. The incubation was performed at 37° C. with gentle shaking. 70 μL aliquots were removed at 0, 1 and 4 hours and quenched into 210 μL ice-cold precipitant solution (95% v/v acetonitrile with 0.1% v/v formic acid). After the last timepoint, the sampling plate was mixed for 10 min on a shaking table and centrifuged 10 min at 2200 g. 70 μL resulting supernatant was diluted with 150 μL water, mixed and centrifugated before analysis by liquid chromatography high resolution mass spectrometry. The zero sample was reinjected after the 4-hour sample to confirm that no drift in instrument sensitivity had occurred during the run. Percent remaining at each timepoint was calculated relative to timepoint zero based on absolute peak areas.
(§3) Compounds with a SGF stability (after 4 h) above 70% are considered highly SGF stable. Compounds with a SGF stability (after 4 h) between 30-70% (including 30% and 70%) are considered moderately SGF stable. Compounds with a SGF stability (after 4 h) below 30% are considered SGF unstable. SGF stability values above 100% are due to assay uncertainty and indicate the compound has not degraded.

[2] = Peptide stability in simulated intestinal fluid (SIF); assay type: in vitro ADME; details: pig, 10 μM
Procedure: as §1, §2
as §3, with “SIF” for “SGF”

[3] = system: IL-23 mediated STAT3 signalling (DB cells); assay: Functional inhibition of IL-23 mediated STAT3 signalling (phospho-STAT3 Tyr705) in DB cells; assay type: cell-based, human; details: for hIL-23 (pSTAT3) antagonist % inhibition: Table 3-2, maximal inhibitory response, EC80 of hIL-23
Procedure, shortened: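 DB cells preincubated 15 min with inhibitor at 37° C, 5% CO2, then stimulated 90 min with hIL-23 at EC80. Lysate phospho-STAT3 measured by MSD electrochemiluminescence. Signal normalized to IL-23-alone and buffer wells; IC50 and maximal inhibition from concentration–response curves.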

[4] = simulated intestinal fluid, SIF, pH 6.8, pancreatin, 37° C., read-out: SIF (% remaining 4 h)
[5] = Table 3-2, EC80 of hIL-23, read-out: hIL-23 (pSTAT3) antagonist IC50
[6] = simulated intestinal fluid, SIF, pH 6.8, pancreatin, 37° C.
[7] = EC80 of hIL-23, read-out: IC50 (pSTAT3)

Structure (SMILES)	IC50 (human IL-23R)	Emax (human IL-23R)	remaining at 1 h, 10 µM [1]	remaining at 4 h, 10 µM [2, 4]	IC50 [3, 5]	hIL-23 (pSTAT3) antagonist % inhibition [3]	remaining at 4 h, 10 µM [1]	remaining at 1 h, 10 µM [2, 6]	IC50 [3, 7]	remaining at 4 h, 10 µM ([2]; 37 °C, simulated intestinal fluid pH 6.8 with porcine pancreatin, read-out: SIF (% after 4 h), intact peptide remaining)
CNC(=O)[C@H](Cc1cccnc1)NC(=O)C1(NC(=O)[C@@H]2CCC(=O)NCc3ccc(cc3)CC(=O)N[C@@H](CO)C(=O)N[C@H]3CCC(=O)NCC[C@H](NC(=O)[C@H](CCC(N)=O)NC(=O)[C@H](Cc4c[nH]c5ccccc45)NC3=O)C(=O)N[C@@H](Cc3ccc(OCCN)cc3)C(=O)N[C@@H](Cc3ccc4ccccc4c3)C(=O)N[C@@](C)(CC(C)C)C(=O)N2)CCOCC1 [Compound 35, [4-Aminomethyl-phenylacetyl](1c)*SE(2c)WQ[Dab](2c)[Y(2-aminoethoxy)][2-Nal][2-Me-Leu]E(1c)[THP][3-(3-Pyridyl)-Ala]-[NHMe]]	0.039 nM	101%	101%	96%						
CNC(=O)[C@H](Cc1cccnc1)NC(=O)[C@H](CCN)NC(=O)[C@@H]1CCC(=O)NCc2ccc(cc2)CC(=O)N[C@@H](C)C(=O)N[C@H]2CCC(=O)NCC[C@H](NC(=O)[C@H](CCC(N)=O)NC(=O)[C@H](Cc3c[nH]c4ccccc34)NC2=O)C(=O)N[C@@H](Cc2c[nH]c3c(F)cccc23)C(=O)N[C@@H](Cc2ccc3ccccc3c2)C(=O)NC(C)(C)C(=O)N1 [Compound 47, [4-Aminomethyl-phenylacetyl](1c)*AE(2c)WQ[Dab](2c)[7-F-Trp][2-Nal][Aib]E(1c)[Dab][3-(3-Pyridyl)-Ala]-[NHMe]]	0.069 nM		103%	92%	0.33 nM	98%	85%	97%		
CC(C)C[C@@H](CC(N)=O)NC(=O)[C@H](Cc1cccnc1)NC(=O)[C@H](CCN)NC(=O)[C@@H]1CCC(=O)NCc2ccc(cc2)CC(=O)N[C@@H](CO)C(=O)N[C@H]2CCC(=O)NCC[C@H](NC(=O)[C@H](CCC(N)=O)NC(=O)[C@H](Cc3c[nH]c4ccccc34)NC2=O)C(=O)N[C@@H](Cc2ccc(OCCN)cc2)C(=O)N[C@@H](Cc2ccc3ccccc3c2)C(=O)N[C@@](C)(CC(C)C)C(=O)N1 [Compound 11, [4-Aminomethyl-phenylacetyl](1c)*SE(2c)WQ[Dab](2c)[Y(2-aminoethoxy)][2-Nal][2-Me-Leu]E(1c)[Dab][3-(3-Pyridyl)-Ala][beta-hLeu]-[NH2]] ([X1]SEWQ[Dab][AEF][2Nal][αMeL]E[Dab][3Pal][β3hL]-NH2; lactam 3-6, N-10)	0.024 nM	103%	98%		0.68 nM	98%	97%	101%	0.68 nM	102%
CNC(=O)[C@H](Cc1cccnc1)NC(=O)[C@](C)(CO)NC(=O)[C@@H]1CCC(=O)NCc2ccc(cc2)CC(=O)N[C@@H](CO)C(=O)N[C@H]2CCC(=O)NCC[C@H](NC(=O)[C@H](CCC(N)=O)NC(=O)[C@H](Cc3c[nH]c4ccccc34)NC2=O)C(=O)N[C@@H](Cc2ccc(OCCN)cc2)C(=O)N[C@@H](Cc2ccc3ccccc3c2)C(=O)N[C@@](C)(CC(C)C)C(=O)N1 [Compound 39, [4-Aminomethyl-phenylacetyl](1c)*SE(2c)WQ[Dab](2c)[Y(2-aminoethoxy)][2-Nal][2-Me-Leu]E(1c)[2-Me-Ser][3-(3-Pyridyl)-Ala]-[NHMe]]	0.024 nM			85%	0.51 nM	101%	96%			
CC(C)C[C@@H]1NC(=O)[C@H](Cc2c[nH]c3ccccc23)NC(=O)[C@H](Cc2c[nH]c3ccccc23)NC(=O)[C@@H]2CSCC(=O)CSC[C@H](NC(=O)[C@H]([C@@H](C)O)NC(=O)[C@@H](NC(=O)CN)CSCC(=O)CSC[C@@H](C(=O)N[C@@H](CO)C(N)=O)NC1=O)C(=O)N[C@@H](Cc1c[nH]c3ccccc13)C(=O)N[C@@H](CCC(=O)O)C(=O)N2 (single isomer, unassigned) [I1 (isomer 3), H-GC(1a)TC(2a)WEC(2a)WWLC(1a)S-[NH2], reference compound]		105%	92%	0%	> 1000 nM	83%	94%	0%		
CC(C)C[C@]1(C)NC(=O)[C@H](Cc2ccc3ccccc3c2)NC(=O)[C@H](Cc2ccc(OCCN)cc2)NC(=O)[C@@H]2CCNC(=O)CC[C@H](NC(=O)[C@H](CO)NC(=O)Cc3ccc(cc3)CNC(=O)CC[C@@H](C(=O)N[C@@H](CCN)C(=O)N[C@H](Cc3c[nH]cn3)C(N)=O)NC1=O)C(=O)N[C@@H](Cc1c[nH]c3ccccc13)C(=O)N[C@@H](CCC(N)=O)C(=O)N2 [Compound 13, [4-Aminomethyl-phenylacetyl](1c)*SE(2c)WQ[Dab](2c)[Y(2-aminoethoxy)][2-Nal][2-Me-Leu]E(1c)[Dab][{d}H]-[NH2]]		100%	94%		6.8 nM	99%		84%	6.8 nM	
CNC(=O)[C@H](Cc1cccnc1)NC(=O)[C@H](CO)NC(=O)[C@@H]1CCC(=O)NCc2ccc(cc2)CC(=O)N[C@@H](C)C(=O)N[C@H]2CCC(=O)NCC[C@H](NC(=O)[C@H](CCC(N)=O)NC(=O)[C@H](Cc3c[nH]c4ccccc34)NC2=O)C(=O)N[C@@H](Cc2ccc(OCCN)cc2)C(=O)N[C@@H](Cc2ccc3ccccc3c2)C(=O)N[C@@](C)(CC(C)C)C(=O)N1 [Compound 40, [4-Aminomethyl-phenylacetyl](1c)*AE(2c)WQ[Dab](2c)[Y(2-aminoethoxy)][2-Nal][2-Me-Leu]E(1c)S[3-(3-Pyridyl)-Ala]-[NHMe]] ([X1]AEWQ[Dab][AEF][2Nal][αMeL]ES[3Pal]-NHMe; lactam 3-6, N-10)		100%					89%	93%		
CCCC[C@H](NC(=O)[C@@H]1CCC(=O)NCc2ccc(cc2)CC(=O)N[C@@H](CO)C(=O)N[C@H]2CCC(=O)NCC[C@H](NC(=O)[C@H](CCC(N)=O)NC(=O)[C@H](Cc3c[nH]c4ccccc34)NC2=O)C(=O)N[C@@H](Cc2ccc(OCCN)cc2)C(=O)N[C@@H](Cc2ccc3ccccc3c2)C(=O)N[C@@](C)(CC(C)C)C(=O)N1)C(=O)N[C@@H](Cc1cccnc1)C(=O)NC [Compound 32, [4-Aminomethyl-phenylacetyl](1c)*SE(2c)WQ[Dab](2c)[Y(2-aminoethoxy)][2-Nal][2-Me-Leu]E(1c)[Nle][3-(3-Pyridyl)-Ala]-[NHMe]]		98%					90%	94%		
